# Measurements as given in the NIST ThermoML archive (doi:10.1021/je0502896).
# Where “and” joins values, the source holds several entries; their conditions need not be identical. Identical values can stand only once. Numbers after ± are expanded uncertainties.
# Conditions: 313.15 K; Liquid
row,Structure (SMILES),vapor or sublimation pressure
1,c1ccccc1 [benzene],24.39 ± 0.18 kPa and 24.38 ± 0.18 kPa and 24.4 ± 0.18 kPa
2,CCC(C)O (stereo not drawn) [butan-2-ol],6.062 ± 0.069 kPa [middle of 4 runs]
3,CC(C)OC(C)C [diisopropyl ether],37.1 ± 0.27 kPa and 37.14 ± 0.27 kPa and 37.12 ± 0.27 kPa
